Laboratory results as given in paper PMC12064818, “A general assay platform to study protein pharmacology using ligand-dependent structural dynamics” (Nature Communications, 2025).

Tests used:
[1] = target: T1, ABL1-N-HiBiT kinase domain (Homo sapiens, UniProt P00519); experiment: SDR assay, ABL1-N-HiBiT; settings: ABL1, SDR; heatmap data, 128 kinase inhibitors
T1 sequence (P00519 233-500): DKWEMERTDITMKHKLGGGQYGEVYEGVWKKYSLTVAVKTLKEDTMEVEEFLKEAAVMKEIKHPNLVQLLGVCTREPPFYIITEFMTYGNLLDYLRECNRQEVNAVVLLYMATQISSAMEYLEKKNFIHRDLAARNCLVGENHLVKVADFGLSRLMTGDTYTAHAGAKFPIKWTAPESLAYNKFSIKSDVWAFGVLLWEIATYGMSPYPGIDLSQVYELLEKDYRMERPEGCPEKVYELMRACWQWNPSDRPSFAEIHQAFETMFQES

[2] = target: FLuc-N-HiBiT (firefly luciferase) (Photinus pyralis, UniProt P08659, form not given/L550V); experiment: SDR assay, FLuc-N-HiBiT; settings: for % Activity (max response): SDR
[3] = ATP-independent imidazo[2,1-b]thiazole (clade O) series
[4] = ATP-independent pyrazolo pyrimidine (clade P)

Sequence of FLuc-N-HiBiT (firefly luciferase) (P08659 2-550 L550V, form open): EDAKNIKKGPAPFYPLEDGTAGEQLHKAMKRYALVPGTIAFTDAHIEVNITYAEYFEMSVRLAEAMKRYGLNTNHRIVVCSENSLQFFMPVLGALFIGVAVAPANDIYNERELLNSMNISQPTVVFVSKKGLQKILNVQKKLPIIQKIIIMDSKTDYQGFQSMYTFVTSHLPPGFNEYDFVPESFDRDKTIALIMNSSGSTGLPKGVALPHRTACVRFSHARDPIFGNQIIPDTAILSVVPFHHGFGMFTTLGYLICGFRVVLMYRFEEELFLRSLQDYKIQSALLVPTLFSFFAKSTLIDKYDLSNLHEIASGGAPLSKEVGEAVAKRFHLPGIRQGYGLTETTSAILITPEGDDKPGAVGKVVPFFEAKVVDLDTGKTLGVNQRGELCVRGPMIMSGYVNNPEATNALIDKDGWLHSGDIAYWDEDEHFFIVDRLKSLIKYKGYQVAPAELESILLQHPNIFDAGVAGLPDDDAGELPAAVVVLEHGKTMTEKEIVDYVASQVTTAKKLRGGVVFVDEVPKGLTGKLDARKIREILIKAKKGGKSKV

Structure (SMILES) | ABL1 SDR pSDR50 [1] | pSDR50 (clade O) [2, 3] | % Activity (max response) [2, 3] [%] | pSDR50 (clade P) [2, 4] | % Activity (max response) [2, 4] [%]
Cc1ccccc1-n1c(C(C)Nc2nc(N)nc3nc[nH]c23)nc2cccc(C)c2c1=O.Cl (centres unmarked) [CAL-130 HCl] | 5.40 | – | – | – | –
Clc1ccccc1Cc1cn2cc(-c3ccccc3)nc2s1 [Compound 0] | – | 5.98 | 50.48 | – | –
Fc1ccc(Cc2cn3cc(-c4ccccc4)nc3s2)cc1 [Compound 2] | – | 5.92 | 39.94 | – | –
Clc1ccc(-c2cn3cc(Cc4ccccc4)sc3n2)cc1 [Compound 4] | – | 5.57 | 64.57 | – | –
Fc1ccccc1Cc1cn2cc(-c3ccc(Cl)cc3)nc2s1 [Compound 6] | – | 5.50 | 29.23 | – | –
Fc1ccc(-c2cn3cc(Cc4ccccc4)sc3n2)cc1 [Compound 10] | – | 5.73 | 39.11 | – | –
Fc1ccc(-c2cn3cc(Cc4ccccc4Cl)sc3n2)cc1 [Compound 30] | – | 5.26 | 49.79 | – | –
Fc1ccc(Cc2cn3cc(-c4ccc(F)cc4)nc3s2)cc1 [Compound 34] | – | 6.28 | 22.33 | – | –
Brc1ccc(-c2cn3cc(Cc4ccccc4)sc3n2)cc1 [Compound 36] | – | 5.89 | 18.18 | – | –
Cc1ccc(Cc2cn3cc(-c4ccccc4)nc3s2)cc1 [Compound 98] | – | 5.78 | 56.11 | – | –
c1ccc(-n2ncc3c(N4CCCCC4)ncnc32)cc1 [Compound 373] | – | – | – | 5.48 | 80.68
CC1CCCN(c2ncnc3c2cnn3-c2ccccc2)C1 (centres unmarked) [Compound 381] | – | – | – | 5.61 | 79.86
